Values of other authors as cited in patent publication US20260077140A1, “METERED DOSE INHALER FOR IPRATROPIUM BROMIDE SOLUTION” (Glenmark Pharmaceuticals Limited, priority 2024, published 2026).
Like-named read-outs stand apart in the source and are kept apart here.

Details: aerosol solution in HFA-134(a) and about 35% ethanol, stored at 50° C.

In the case of `CC(C)[N+]1(C)[C@@H]2CC[C@H]1CC(OC(=O)C(CO)c1ccccc1)C2.[Br-]` (some centres unmarked) [ipratropium bromide], the “decomposition of the ipratropium bromide” value is given as “significant decomposition” and the “decomposition of the ipratropium bromide” value (addition of 1% water) is given as “reduced the decomposition due to dehydration”.
